The target of this test is apotransferrin (Homo sapiens, UniProt P02787). Nature of the test: Donation of iron to apotransferrin (59Fe, Sephadex G10 separation). Particulars: 5 x 10^-5M apotransferrin, 1 x 10^-4M iron, pH 7.4. The format is biochemical. Here is the method:
(Maltol)2 (ascorbic acid) iron(III) was prepared in situ by dissolving maltol and ascorbic acid in a 2:1 molar ratio in an aqueous medium containing morpholine propane sulphonate (MOPS, 25 mM) and sodium hydrogen carbonate (30 mM), the pH being adjusted to 7.4 with hydrochloric acid (50% v/v). To the medium was added a solution of ^59Fe enriched ferric chloride in 0.1 M aqueous hydrochloric acid containing a molar amount of iron equivalent to that of the ascorbic acid. Equal volumes of the solution of the iron complex and of apotransferrin in the same aqueous medium were mixed to provide concentrations in the mixture of 5 x 10-^5M of apotransferrin and 1 x 10-^4M of iron.
The mixture was incubated at room temperature in separate experiments for 10 and 60 minutes and an aliquot was then added to a Sephadex G10 column equilibrated with the same aqueous medium described above and the column eluted with that medium, fractions being collected and counted. The percentages of ^59Fe associated with apotransferrin and with ligands are calculated as cpm iron-apotransferrin/total cpm and cpm iron-(maltol)2 (ascorbic acid)/total cpm.

[1] abbreviates: after 10 minutes at room temperature.
[2] abbreviates: after 60 minutes at room temperature.

Chain of apotransferrin (P02787 20-698): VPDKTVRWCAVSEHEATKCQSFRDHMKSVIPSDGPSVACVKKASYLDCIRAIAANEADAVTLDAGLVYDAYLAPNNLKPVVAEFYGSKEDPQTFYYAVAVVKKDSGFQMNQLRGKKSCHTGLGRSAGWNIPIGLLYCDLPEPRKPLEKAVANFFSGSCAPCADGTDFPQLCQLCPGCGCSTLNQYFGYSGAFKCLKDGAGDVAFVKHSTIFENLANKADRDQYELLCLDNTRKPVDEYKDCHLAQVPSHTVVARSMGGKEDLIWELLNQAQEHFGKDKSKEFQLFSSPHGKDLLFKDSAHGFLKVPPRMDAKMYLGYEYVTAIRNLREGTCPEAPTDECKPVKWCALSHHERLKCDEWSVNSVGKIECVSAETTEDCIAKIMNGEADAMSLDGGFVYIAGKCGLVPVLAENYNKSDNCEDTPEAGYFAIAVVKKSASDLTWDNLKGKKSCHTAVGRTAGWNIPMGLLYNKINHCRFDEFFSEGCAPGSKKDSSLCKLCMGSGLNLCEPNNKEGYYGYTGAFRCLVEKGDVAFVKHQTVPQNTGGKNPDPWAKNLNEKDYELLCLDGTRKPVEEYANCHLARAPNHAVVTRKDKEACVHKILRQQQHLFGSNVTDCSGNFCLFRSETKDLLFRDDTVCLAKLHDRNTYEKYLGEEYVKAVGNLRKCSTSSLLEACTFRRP

Take “(maltol)2 (ascorbic acid) iron(III) complex”: under setting [1], the “59Fe associated with apotransferrin” value is 43% and the “59Fe associated with the ligands” value was found to be 57%. Further, under setting [2], the “59Fe donated to the apotransferrin” value is reported as 75% and the “59Fe remaining associated with the ligands” value is 25%.
